# Entries after “also recorded” stand apart in the source; their conditions may differ. Read-outs that look alike come from different tables or passages of the source.
# What was measured:
# type II ER = conditions: literature (40-41,43); cited from earlier work
# [1] = system: estrogen binding protein (EBP), 84 kD heterodimer, mouse fetal liver; assay: Competition for / modulation of ^3H-estradiol-17β binding to EBP (charcoal assay); conditions: for inhibition of / influence on ^3H-estradiol-17β binding to EBP: competitor concentration not stated
# Method: (§1) In brief, the procedure is as follows. […] Simultaneously tubes in duplicate without any added protein sample were set up as control. At the end of the incubation the tubes were put in an ice bath for 15 minutes to cool to the ice bath temperature. 0.5 ml of charcoal solution (0.05% heat activated charcoal plus 0.05% bovine serum albumin in tris buffer) was added, mixed and incubated further for 10 minutes. The tubes were then centrifuged at 2500 rpm for 15 minutes at 4°C to pellet the charcoal. 0.5 ml from each tube was carefully withdrawn without disturbing the charcoal pellet at the bottom of the tube and the radioactivity was measured following mixing with the scintillation cocktail. The net protein bound radioactivity was calculated after deducting the background counts based on the tubes without any added protein.
# [2] = system: estrogen binding protein (EBP), 84 kD heterodimer, mouse fetal liver; assay: Sucrose density gradient centrifugation of EBP incubated with ^3H-estradiol-17β and competitor; conditions: ^3H-estradiol-17β 0.85 pmol + dimethylbenzanthracene 0.42 nmol or 1.2 nmol; Fig. 17
# Excerpt: In the light of the above information attempts were made to analyse whether some of the known pollutants and carcinogens (1-OH, 3-OH, 8-OH, 10-OH benzo(a)pyrene, […]) compete in vitro with ^3H-estradiol-17β for binding site on EBP. […] Since benzo(a)pyrene is a known carcinogen it will be important to determine whether there is a structural relationship between estradiol-17β and the various hydroxy benzo(a)pyrenes. […] It is well known that DMBA is a potent carcinogen and as such it has been extensively used to induce estrogen dependent mammary and endometrial cancers in animals. […] However, this agent is still utilized to coat common plastics of daily use. […] Establishment of a correlationship between the in vitro and in vivo potency of such compounds will provide a rapid in vitro screening assay. Most importantly, such information for the first time will delineate a definitive role for an estrogen binder such as EBP in carcinogenesis and may also enable to explain why compounds such as DMBA induce tumors in estrogen responsive tissues as well as why the tumors are estrogen dependent.
# [3] = system: estrogen binding protein (EBP), 84 kD heterodimer, mouse fetal liver
# Method: as §1
compound,measurement,setting,value
"O[C@H](CS)[C@H](O)CS (racemic) [DTT, dithiotreitol]",sensitivity of type II ER estrogen binding to DTT,type II ER,highly sensitive
CC/C(=C(\c1ccc(O)cc1)c1ccc(OCCN(C)C)cc1)c1ccccc1 [4-hydroxytamoxifen],inhibition of / influence on ^3H-estradiol-17β binding to EBP,[1],no significant inhibitory effect
"Cc1c2ccccc2c(C)c2c1ccc1ccccc12 [DMBA, 7,12-dimethylbenzanthracene]",inhibition of ^3H-estradiol-17β binding (sucrose gradient centrifugation),[2],inhibition
CC/C(=C(\c1ccccc1)c1ccc(OCCN(C)C)cc1)c1ccccc1 [Tamoxifen],inhibition of / influence on ^3H-estradiol-17β binding to EBP,[1],no significant inhibitory effect
CC/C(=C(/CC)c1ccc(O)cc1)c1ccc(O)cc1 [diethylstilbestrol],binding of the radiolabelled compound to EBP,[3],"does not bind; also recorded: most estrogens no Des binding no competition (prog, androgen, corticoids)"
NCCc1ccc(O)c(O)c1 [dopamine],binding of the radiolabelled compound to EBP,[3]; radiolabelled ligand,no binding
same,influence on ^3H-estradiol-17β binding to EBP,[1]; both at low and high molarity,did not significantly influence
same,inhibition of / influence on ^3H-estradiol-17β binding to EBP,[1],did not influence
C[C@]12CC[C@@H]3c4ccc(O)cc4CC[C@H]3[C@@H]1CC[C@H]2O [estradiol-17α],inhibition of ^3H-estradiol-17β binding to EBP,[1]; competitor at 300-fold the concentration of the radiolabelled estrogen,no inhibitory effect
C[C@]12CC[C@@H]3c4ccc(O)cc4CC[C@H]3[C@@H]1C[C@@H](O)[C@@H]2O [estriol],relative binding activities of the competing estrogens,"[1]; calculated at the 50% reduction level, compared to non-labelled estradiol-17β competing potency",37%
same,inhibition of / influence on ^3H-estradiol-17β binding to EBP,[1],significantly inhibited

# — patent EP0939084A1, “An estrogen binding proteinaceous substance, its possible role in estrogen action, and potential use” (Rao, Ramanath B., priority 1998, dated 1999)
